Data from patent US9938259B2, “Therapeutic compositions and related methods of use” (Agios Pharmaceuticals, Inc., priority 2009, dated 2018).

Experiments:
[1] = target: T1, PKM2 (Homo sapiens, UniProt P14618); experiment: PKM2 Ex-Vivo Assay; assay type: cell-based; set-up: endogenous in cells; host or cells: A549; details: A549 cells treated with compound 1-4 hrs, pyruvate kinase activity in lysate; read-out: Ex-Vivo_AC50
Description: Described herein is a method to measure the activity of PKM2 activators in living cells and tissue. One of ordinary skill in the art would recognize and understand that this method can be adapted to high throughput format, and can accommodate a variety of cell lines and growth conditions.
In the assay, cells are treated with a compound described herein (i.e., a PKM2 activator). This compound is capable of entering the cell and binding to PKM2, inducing an activated conformation. The excess unbound compound is washed away with PBS, and the cells are lysed by snap-freezing on dry ice, followed by addition of a detergent-containing lysis buffer. The lysate, in which activated PKM2 remains intact, is removed and added to a chemical cocktail including the chemicals necessary to measure pyruvate kinase activity, in an assay that is coupled to the LDHa enzyme. The amount of pyruvate kinase activity that is measured is normalized to the total protein content in the lysate, and related to the concentration of PKM2 activator that was added to the cell. This allows an AC50 (concentration at which PKM2 is activated 50%) value to be derived. The total fold-increase in activity over mock-treated cells can also be calculated, and the “maximum level of activation” can be used to distinguish between compounds that fully activate PKM2 and compounds that can only partially activate PKM2.
• Lysis buffer* • 20 mM Tris-HCl (pH 7.5) • 150 mM NaCl • 1 mM Na2EDTA • 1 mM EGTA • 1% Triton • 2.5 mM sodium pyrophosphate • 1 mM beta-glycerophosphate • 1 mM Na3VO4 • 1 μg/ml leupeptin • 1 mM PMSF** * This lysis buffer (without PMSF) is available from Cell Signaling Technology as a 10× stock (#9803) ** 1 mM PMSF is added fresh from a 100 mM stock solution made up in isopropanol. The stock solution can be stored at 4 degrees indefinitely. Pyruvate Kinase Assay Master Mix (Same for PKM2 Activator Assay):
On the first day (day 1) cells are normally cultured in RPMI-1640 (Lonza #[…].) (with 25 mM Hepes, L-glutamine)/10% FBS. The cells are subsequently trypsinized and plated in RPMI-1640 (Lonza, #12-918F) (no phenol red, supplemented with L-glutamine @300 mg/L (Sigma, #G8540))/10% FBS at the following densities in 96 well plates:
100 uL final volume of media per well.
On the second day (Day 2), the cells should be 70-90% confluent. The cells are then treated with a compound described herein dissolved in media at final assay concentrations in a 96-well assay block (500 uL) (Costar, #3956). The final DMSO concentration is 0.1% (0.5 μL into 500 uL). Compound dilutions in DMSO are prepared so that the final DMSO concentration is constant at all compound concentrations. The media for the assay is RPMI-1640 (no phenol red, with L-glutamine @300 mg/L).
The media is then aspirated carefully from the cells using a multi-channel aspirator. 100 μL of media w/compounds is added onto cells with a multichannel pipette. Each compound concentration is then assayed in triplicate (a duplicate assay is also sufficient).
The cells are treated for 1-4 hrs (this time is determined empirically compared to DMSO reference treatment). During the cell treatment, PBS (containing calcium and magnesium) and lysis buffer is cooled on ice.
The cells are lysed and the pyruvate kinase activity is assayed. The remaining media is aspirated and the cells are washed 2× with 100 uL ice-cold PBS. The PBS is removed, and the cell plate frozen on dry ice for 5 minutes. The cells are lysed in 50 μL cold lysis buffer. Cells are subsequently kept on ice for 5 minutes, and then agitated on a plate shaker for 5 minutes (repeat 3×). Remove 10 μL for protein quantitation (or use OD280 on entire plate).
In a fresh plate, 170 uL of pyruvate kinase assay master mix was added to each well (see end for recipe). 10 uL of cell lysate was then transferred into each well. The assay was initiated upon addition of 20 uL of ADP solution. […]
Target sequence in this assay (P14618 2-531 limits assumed): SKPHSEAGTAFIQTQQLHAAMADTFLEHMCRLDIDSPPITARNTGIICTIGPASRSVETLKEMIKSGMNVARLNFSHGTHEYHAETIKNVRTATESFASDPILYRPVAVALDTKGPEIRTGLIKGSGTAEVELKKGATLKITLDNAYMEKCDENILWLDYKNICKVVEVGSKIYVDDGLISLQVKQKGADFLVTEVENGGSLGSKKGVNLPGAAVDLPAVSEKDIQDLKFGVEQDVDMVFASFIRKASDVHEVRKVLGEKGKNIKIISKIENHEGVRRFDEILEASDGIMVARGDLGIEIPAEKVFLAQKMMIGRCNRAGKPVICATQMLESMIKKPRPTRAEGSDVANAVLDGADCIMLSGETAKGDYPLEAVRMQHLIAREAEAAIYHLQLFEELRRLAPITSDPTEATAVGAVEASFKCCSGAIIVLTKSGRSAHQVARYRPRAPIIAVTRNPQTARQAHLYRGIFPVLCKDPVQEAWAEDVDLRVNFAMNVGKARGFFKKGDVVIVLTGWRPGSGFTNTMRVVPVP

[2] = target: T1, PKM2; experiment: PKM2 Assay; assay type: biochemical; details: activation of PKM2 enzyme, LDH-coupled, absorbance at 340 nm; read-out: PKM2_AC50
Description: • PKM2 stock enzyme solution was diluted in Reaction Buffer • 2 μL of compound was added into each well first, and then 180 μL of the Reaction Mix was added. • Reaction mixture with compound (without ADP) were incubated for 30 minutes at 4° C. • Plates were re-equilibrated to room temperature prior to adding 20 μL ADP to initiate the reaction. • Reaction progress was measured as changes in absorbance at 340 nm wavelength at room temperature (25° C.) • Reaction Mix: PKM2 (50 ng/well), ADP (0.7 mM), PEP (0.15 mM), NADH (180 μM), LDH (2 units) in Reaction Buffer • Reaction Buffer: 100 mM KCl, 50 mM Tris pH 7.5, 5 mM MgCl2, 1 mM DTT, 0.03% BSA.
Target sequence in this assay (P14618 whole entry): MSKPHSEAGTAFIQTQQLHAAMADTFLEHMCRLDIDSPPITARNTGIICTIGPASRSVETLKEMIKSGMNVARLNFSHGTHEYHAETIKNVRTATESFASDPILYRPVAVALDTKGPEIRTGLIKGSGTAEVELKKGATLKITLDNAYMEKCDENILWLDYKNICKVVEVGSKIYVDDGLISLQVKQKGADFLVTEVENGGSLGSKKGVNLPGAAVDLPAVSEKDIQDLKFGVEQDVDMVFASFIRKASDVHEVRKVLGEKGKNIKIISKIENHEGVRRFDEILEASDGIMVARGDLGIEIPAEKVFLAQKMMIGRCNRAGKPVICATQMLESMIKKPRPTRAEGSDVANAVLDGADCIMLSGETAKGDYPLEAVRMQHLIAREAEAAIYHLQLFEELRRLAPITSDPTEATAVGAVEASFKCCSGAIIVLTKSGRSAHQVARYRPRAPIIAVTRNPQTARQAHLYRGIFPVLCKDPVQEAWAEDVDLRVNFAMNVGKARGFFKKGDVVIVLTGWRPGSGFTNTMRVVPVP

AC50 [1] | AC50 [2] | SMILES
≤ 1 µM |  | Cc1cc(C)cc(NS(=O)(=O)c2cccn2-c2ncccn2)c1
 | 1 to 10 µM | O=S(=O)(Nc1ccc(Oc2ccc(C(F)(F)F)cn2)c(Cl)c1)c1cccn1-c1ncc(C(F)(F)F)cc1Cl
≤ 1 µM | 0.1 to 0.5 µM | Cc1cc(C)cc(NS(=O)(=O)c2cccn2-c2ccc(C(F)(F)F)cn2)c1
> 1 µM | 0.1 to 0.5 µM | CCc1cccc(NS(=O)(=O)c2cccn2-c2ccnc(Cl)n2)c1
≤ 1 µM |  | O=S(=O)(Nc1ccc(Cl)cc1)c1cccn1-c1ncc(C(F)(F)F)cc1Cl
≤ 1 µM | < 0.1 µM | O=S(=O)(Nc1cccc(Cl)c1)c1cccn1-c1ncc(C(F)(F)F)cc1Cl
≤ 1 µM |  | Cc1cc(C)cc(NS(=O)(=O)c2cccn2-c2ncc(C(F)(F)F)cc2Cl)c1
> 1 µM | < 0.1 µM | Cc1cc(C)cc(NS(=O)(=O)c2cccn2-c2ccnc(Cl)n2)c1
≤ 1 µM | < 0.1 µM | Cc1ccc(NS(=O)(=O)c2cccn2-c2ncc(C(F)(F)F)cc2Cl)cc1
≤ 1 µM | < 0.1 µM | Cc1cc(NS(=O)(=O)c2cccn2-c2ncc(C(F)(F)F)cc2Cl)ccc1Cl
≤ 1 µM | < 0.1 µM | Cc1ccc(NS(=O)(=O)c2cccn2-c2ncc(C(F)(F)F)cc2Cl)cc1C
 | 0.5 to 1 µM | O=S(=O)(Nc1ccc(Cl)cc1)c1cccn1-c1nccc(Cl)n1
≤ 1 µM |  | O=S(=O)(Nc1ccc2c(c1)OCO2)c1cccn1-c1ncc(C(F)(F)F)cc1Cl
 | 0.5 to 1 µM | O=S(=O)(Oc1ccc(Cl)cc1)c1cccn1-c1ncc(C(F)(F)F)cc1Cl
 | 0.1 to 0.5 µM | O=S(=O)(Nc1cccc(C(F)(F)F)c1)c1cccn1-c1ncc(C(F)(F)F)cc1Cl
 | 1 to 10 µM | O=S(=O)(Nc1ccc(Cl)cc1)c1cccn1-c1ncccn1
> 1 µM | < 0.1 µM | Cc1cc(C)cc(NS(=O)(=O)c2cccn2-c2nccc(Cl)n2)c1
≤ 1 µM | < 0.1 µM | O=S(=O)(Nc1ccccc1)c1cccn1-c1ncc(C(F)(F)F)cc1Cl
 | 0.1 to 0.5 µM | COc1ccc(NS(=O)(=O)c2cccn2-c2ncc(C(F)(F)F)cc2Cl)cc1
 | 1 to 10 µM | N#Cc1cccc(NS(=O)(=O)c2cncn2-c2ncc(C(F)(F)F)cc2Cl)c1
 | 1 to 10 µM | O=S(=O)(Nc1ccc(F)cc1)c1cncn1-c1ncc(C(F)(F)F)cc1Cl
≤ 1 µM | 0.1 to 0.5 µM | Cc1cc(NS(=O)(=O)c2cncn2-c2ncc(C(F)(F)F)cc2Cl)ccc1Cl
 | 1 to 10 µM | O=S(=O)(Nc1cccc(C(F)(F)F)c1)c1cncn1-c1ncc(C(F)(F)F)cc1Cl
≤ 1 µM | 0.1 to 0.5 µM | O=S(=O)(Nc1ccc(F)c(Cl)c1)c1cncn1-c1ncc(C(F)(F)F)cc1Cl
≤ 1 µM | < 0.1 µM | Cc1ccc(NS(=O)(=O)c2cncn2-c2ncc(C(F)(F)F)cc2Cl)cc1C

AC50 [1] | AC50 [2] | SMILES
≤ 1 µM | < 0.1 µM | Cc1cc(NS(=O)(=O)c2cncn2-c2ncc(C(F)(F)F)cc2Cl)ccc1F
≤ 1 µM |  | Cc1cccc(NS(=O)(=O)c2cncn2-c2ncc(C(F)(F)F)cc2Cl)c1
≤ 1 µM |  | Cc1cc(C)cc(NS(=O)(=O)c2cncn2-c2ncc(C(F)(F)F)cc2Cl)c1
≤ 1 µM | 0.1 to 0.5 µM | O=S(=O)(Nc1cccc(Cl)c1)c1cncn1-c1ncc(C(F)(F)F)cc1Cl
≤ 1 µM | < 0.1 µM | Cc1cc(C)cc(NS(=O)(=O)c2cnn(-c3ncc(C(F)(F)F)cc3Cl)c2)c1
≤ 1 µM | < 0.1 µM | O=S(=O)(Nc1cc(F)cc(F)c1)c1cccn1-c1ncc(C(F)(F)F)cc1Cl
≤ 1 µM |  | Cc1cc(NS(=O)(=O)c2cccn2-c2ncc(C(F)(F)F)cc2Cl)ccc1F
≤ 1 µM | < 0.1 µM | O=S(=O)(Nc1ccc2c(c1)OCO2)c1cccn1-c1ncccc1Cl
> 1 µM | < 0.1 µM | O=S(=O)(Nc1ccc(F)c(Cl)c1)c1cccn1-c1ccnc(Cl)n1
≤ 1 µM | 1 to 10 µM | O=S(=O)(Nc1ccc(Cl)cc1)c1cncn1-c1cnccn1
 | 0.5 to 1 µM | O=S(=O)(Nc1cc(F)cc(F)c1)c1cccn1-c1ncccc1Cl [drawing 63]
≤ 1 µM |  | O=S(=O)(Nc1ccc(Cl)cc1)c1cccn1-c1ncccc1Cl [drawing 87]
 | < 0.1 µM | Cc1cc(NS(=O)(=O)c2cccn2-c2ncccc2Cl)ccc1F [drawing 101]
 | 0.1 to 0.5 µM | O=S(=O)(Nc1ccc(F)c(Cl)c1)c1cncn1-c1ncccn1 [drawing 117]
 | 1 to 10 µM | COc1cc(NS(=O)(=O)c2cncn2-c2ncc(C(F)(F)F)cc2Cl)cc(C(F)(F)F)c1 [drawing 122]
≤ 1 µM | < 0.1 µM | O=S(=O)(Nc1ccc2ccccc2c1)c1cncn1-c1ncc(C(F)(F)F)cc1Cl [drawing 128]
 | < 0.1 µM | Cc1cc(NS(=O)(=O)c2cncn2-c2ncccn2)ccc1F [drawing 132]
 | 0.5 to 1 µM | COc1cc(NS(=O)(=O)c2cncn2-c2ncc(C(F)(F)F)cc2Cl)cc(C(F)(F)F)c1 [drawing 144]
 | 1 to 10 µM | COc1cc(NS(=O)(=O)c2cncn2-c2ncc(C(F)(F)F)cc2Cl)cc(C(F)(F)F)c1 [drawing 149]
≤ 1 µM | 0.1 to 0.5 µM | O=S(=O)(Nc1ccc2ccccc2c1)c1cncn1-c1ncc(C(F)(F)F)cc1Cl [drawing 151]
 | 0.1 to 0.5 µM | O=S(=O)(Nc1ccc(Cl)cc1)c1cccn1-c1ncccc1Cl [drawing 154]
≤ 1 µM | 0.1 to 0.5 µM | Cc1cc(NS(=O)(=O)c2cncn2-c2ncccn2)ccc1F [drawing 158]
≤ 1 µM |  | O=S(=O)(Nc1ccc(F)c(Cl)c1)c1cncn1-c1ncccn1 [drawing 160]
≤ 1 µM | 0.1 to 0.5 µM | Cc1cc(NS(=O)(=O)c2cccn2-c2ncccc2Cl)ccc1F [drawing 161]
 | < 0.1 µM | O=S(=O)(Nc1cc(F)cc(F)c1)c1cccn1-c1ncccc1Cl [drawing 162]
